Results on ten compounds are retold here after ChEMBL document CHEMBL1201862, “PubChem BioAssay data set” (2004).

Counter-ions that a name gives are not always drawn.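 Interpolation was linear, between the two tested concentrations surrounding the appropriate level; five concentrations were tested over 48 hours in 96-well plates. At the GI50, growth is halved.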 Calls of active or inactive are those of the source. Cut-off read from the data, not from the text of the source: active = GI50 up to about 1.1 µM and inactive = higher.

Among the test systems are CAKI-1; COLO 205; HL-60; HOP-62; HT-29; IGROV-1; KM12; LOX IMVI; M14; MCF7; OVCAR-4; OVCAR-5; OVCAR-8; RPMI-8226; SF-295; SK-OV-3; SN12C; SR; UACC-62; UO-31.
Assay in all cases: DTP human tumour cell line panel, 48 h

The term GI50 denotes the concentration at which growth is held to half of that of the control. On to `CCCCOC(=O)CC(CC(=O)OCCCC)(OC(C)=O)C(=O)OCCCC` [ACETYLTRIBUTYL CITRATE], for which the GI50 in the assay with CAKI-1 was > 200 µM (inactive); in the assay with COLO 205, 60.1 µM (inactive); in the assay with HL-60, 27.8 µM (inactive); in the assay with HOP-62, > 200 µM (inactive); in the assay on HT-29 it was 60.8 µM (inactive); in the assay on IGROV-1, > 200 µM (inactive). The GI50 is > 112 µM (inactive) in the assay on KM12; 150 µM (inactive) in the assay with LOX IMVI; > 200 µM (inactive) in the assay with M14; 39.1 µM (inactive) in the assay on MCF7; > 81.5 µM (inactive) in the assay with OVCAR-4; > 200 µM (inactive) with OVCAR-5. Moreover, the GI50 in the assay with OVCAR-8 is > 190 µM (inactive); in the assay with RPMI-8226, 16 µM (inactive); in the assay on SF-295, 91.2 µM (inactive); in the assay with SK-OV-3, > 200 µM (inactive); in the assay on SN12C, > 164 µM (inactive); in the assay on SR it was 14.7 µM (inactive). Also, the GI50 in the assay on UACC-62 was 117 µM (inactive); in the assay with UO-31, 39.6 µM (inactive).
Regarding `O=C(Cc1ccccc1)Nc1nc2ccc(Cl)cc2c2nc(-c3ccco3)nn12`, the GI50 in the assay with CAKI-1 is > 100 µM (inactive); in the assay with COLO 205 it was > 100 µM (inactive); in the assay with HL-60, > 100 µM (inactive); in the assay with HOP-62, 16.4 µM (inactive); in the assay on HT-29, > 100 µM (inactive); in the assay on IGROV-1, > 21.6 µM (inactive). Further, the GI50 is > 100 µM (inactive) in the assay with KM12; > 100 µM (inactive) with LOX IMVI; > 100 µM (inactive) in the assay with M14; 4.46 µM (inactive) with MCF7; > 100 µM (inactive) in the assay with OVCAR-5; > 57.9 µM (inactive) in the assay with OVCAR-8. For the same compound, the GI50 in the assay on RPMI-8226 was > 100 µM (inactive); in the assay with SF-295, 21.7 µM (inactive); in the assay with SK-OV-3, 39.6 µM (inactive); in the assay on SN12C it was > 100 µM (inactive); in the assay on SR it was 3.44 µM (inactive); in the assay with UACC-62 it was > 100 µM (inactive). In addition, in the assay on UO-31, the GI50 is > 100 µM (inactive).
As to `CCC(=O)OCN(C)c1nc(N(C)COC(=O)CC)nc(N(C)COC(=O)CC)n1`, the GI50 was 63.8 µM (inactive) in the assay on CAKI-1; 24.3 µM (inactive) in the assay with COLO 205; > 10 µM (inactive) in the assay with HL-60; > 100 µM (inactive) in the assay on HOP-62; 26.9 µM (inactive) in the assay with HT-29; > 100 µM (inactive) in the assay on IGROV-1. Moreover, the GI50 is 34.5 µM (inactive) with KM12; 18 µM (inactive) with LOX IMVI; 28.1 µM (inactive) with M14; 42 µM (inactive) in the assay on MCF7; 30.5 µM (inactive) with OVCAR-4; > 100 µM (inactive) in the assay on OVCAR-5. Besides, the GI50 is 69.3 µM (inactive) with OVCAR-8; 27.4 µM (inactive) in the assay with RPMI-8226; > 100 µM (inactive) in the assay with SF-295; > 100 µM (inactive) with SK-OV-3; 39.8 µM (inactive) in the assay with SN12C; 26.7 µM (inactive) with SR. The GI50 with UACC-62 is 18.6 µM (inactive); in the assay on UO-31, 56.6 µM (inactive).
Consider `CS(=O)(=O)OCCCNCCCOS(C)(=O)=O`, for which the GI50 in the assay on CAKI-1 is 650 µM (inactive); in the assay with COLO 205, 1730 µM (inactive); with HL-60 it was 201 µM (inactive); in the assay on HOP-62, 729 µM (inactive); in the assay with HT-29, 1210 µM (inactive); with IGROV-1 it was 2110 µM (inactive). For the same compound, the GI50 was 2080 µM (inactive) in the assay with KM12; 569 µM (inactive) in the assay with LOX IMVI; 753 µM (inactive) in the assay on M14; 679 µM (inactive) in the assay with MCF7; 2130 µM (inactive) in the assay with OVCAR-4; 2130 µM (inactive) in the assay with OVCAR-5. Besides, the GI50 was 1650 µM (inactive) with OVCAR-8; 1310 µM (inactive) in the assay with RPMI-8226; 526 µM (inactive) with SF-295; 1550 µM (inactive) in the assay with SK-OV-3; 533 µM (inactive) in the assay on SN12C; 148 µM (inactive) in the assay on SR. The GI50 was 393 µM (inactive) in the assay with UACC-62 and 1990 µM (inactive) in the assay on UO-31.
Turning to `CC(=O)OCc1ccc(-c2nc(C#N)c(N)o2)o1`, the GI50 with CAKI-1, in the assay on COLO 205, in the assay on HL-60, with HOP-62, in the assay on HT-29 and in the assay with IGROV-1 was > 10 µM (inactive) throughout. Also, the GI50 in the assay on KM12, in the assay with LOX IMVI, in the assay with M14, in the assay with MCF7, with OVCAR-4 and in the assay on OVCAR-8 was > 10 µM (inactive) throughout. Further, the GI50 in the assay with RPMI-8226, in the assay with SF-295, in the assay with SK-OV-3, in the assay with SN12C, with SR and in the assay with UACC-62 was > 10 µM (inactive) throughout. In addition, in the assay on UO-31, the GI50 is > 10 µM (inactive).
As for `CN(C)c1cccc(/C=C(\C#N)c2ccccc2)c1`, the GI50 is 0.771 µM (active) in the assay with CAKI-1; 0.533 µM (active) in the assay with COLO 205; 0.0865 µM (active) in the assay on HL-60; 0.164 µM (active) in the assay on HOP-62; 0.213 µM (active) in the assay on HT-29; 1.11 µM (active) in the assay on IGROV-1. For the same compound, the GI50 with KM12 was 0.1 µM (active); in the assay with LOX IMVI, 0.406 µM (active); with M14 it was 0.277 µM (active); in the assay on MCF7, 0.218 µM (active); in the assay on OVCAR-4, 17.1 µM (inactive); with OVCAR-5, 3.72 µM (inactive). In addition, the concentration for 50% growth inhibition (GI50) in the assay on OVCAR-8 was 1.01 µM (active); in the assay on RPMI-8226, 0.579 µM (active); with SF-295, 0.574 µM (active); in the assay on SK-OV-3, 1.11 µM (active); in the assay with SN12C, 1.15 µM (inactive); in the assay on SR it was 0.0879 µM (active). Also, the GI50 is 0.792 µM (active) with UACC-62 and 5.46 µM (inactive) in the assay on UO-31.
For `Clc1ccc(OCc2nnc3sc(-c4ccc(-c5ccc(Cl)cc5Cl)o4)nn23)c(Cl)c1`, the GI50 is 28.7 µM (inactive) in the assay on CAKI-1; 26.1 µM (inactive) with COLO 205; 28.2 µM (inactive) in the assay with HL-60; 15.4 µM (inactive) with HOP-62; 22.7 µM (inactive) with HT-29; 17.8 µM (inactive) in the assay on IGROV-1. The GI50 with KM12 is 32.6 µM (inactive); with LOX IMVI it was 19.3 µM (inactive); in the assay with M14 it was 25.5 µM (inactive); with MCF7, 31.6 µM (inactive); with OVCAR-4, 35.5 µM (inactive); with OVCAR-5 it was 20 µM (inactive). Moreover, the GI50 with OVCAR-8 was 17.9 µM (inactive); in the assay with RPMI-8226 it was 24.2 µM (inactive); in the assay with SF-295, 16.9 µM (inactive); with SK-OV-3, 19.1 µM (inactive); with SN12C it was 18.9 µM (inactive); with SR, 2.58 µM (inactive). In addition, the GI50 in the assay with UACC-62 is 25.7 µM (inactive); with UO-31, 25.8 µM (inactive).
With `C=C[C@@](C)(/C=C/c1ccc(O)cc1)CCC=C(C)C` [BAKUCHIOL], the GI50 was 18.6 µM (inactive) with CAKI-1; 17.7 µM (inactive) with COLO 205; 14.1 µM (inactive) in the assay with HL-60; 19.1 µM (inactive) with HOP-62; 16.5 µM (inactive) with HT-29; 15.8 µM (inactive) with IGROV-1. For the same compound, the GI50 in the assay with LOX IMVI is 18.2 µM (inactive); in the assay on M14, 19.1 µM (inactive); in the assay on MCF7, 19.5 µM (inactive); in the assay with OVCAR-4, 14 µM (inactive); with OVCAR-5, 19.2 µM (inactive); in the assay with OVCAR-8, 16.9 µM (inactive). In addition, the GI50 was 14.9 µM (inactive) in the assay with RPMI-8226; 20.2 µM (inactive) in the assay on SF-295; 16.3 µM (inactive) with SK-OV-3; 18.5 µM (inactive) with SN12C; 16.5 µM (inactive) in the assay with SR; 17.7 µM (inactive) in the assay on UO-31.
Consider `CCOC(=O)c1csc(NC(=O)C(C)N2CCCCC2)n1` (centres undefined), for which the GI50 in the assay on CAKI-1, with COLO 205, in the assay on HL-60, with HOP-62, with HT-29 and in the assay with IGROV-1 was > 100 µM (inactive) in each case. Besides, the GI50 in the assay with KM12, with LOX IMVI, in the assay with M14, in the assay on MCF7, in the assay on OVCAR-4 and in the assay on OVCAR-5 was > 100 µM (inactive) each time. Besides, the GI50 in the assay with OVCAR-8 is > 100 µM (inactive); with RPMI-8226, > 100 µM (inactive); with SF-295, > 100 µM (inactive); with SK-OV-3, > 100 µM (inactive); with SR it was 2.51 µM (inactive); in the assay on UACC-62, > 100 µM (inactive). Also, in the assay on UO-31, the GI50 is > 100 µM (inactive).
With `Cc1cc(C)c(/C=C2\C(=O)Nc3ccccc32)[nH]1` [SEMAXANIB], the GI50 with CAKI-1 is > 59.2 µM (inactive); in the assay on COLO 205 it was > 100 µM (inactive); with HL-60 it was 7.28 µM (inactive); in the assay with HOP-62 it was > 82.2 µM (inactive); with HT-29 it was 35.6 µM (inactive); with KM12 it was 0.998 µM (active). The GI50 with LOX IMVI is > 100 µM (inactive); in the assay with M14, 69 µM (inactive); with MCF7, 83.9 µM (inactive); in the assay with OVCAR-4, 52.5 µM (inactive); in the assay on OVCAR-5 it was > 69 µM (inactive); in the assay with OVCAR-8 it was > 49.5 µM (inactive). For the same compound, the GI50 with RPMI-8226 was > 100 µM (inactive); with SF-295 it was > 100 µM (inactive); in the assay on SK-OV-3, > 66.7 µM (inactive); in the assay with SN12C, > 100 µM (inactive); with SR, 17.9 µM (inactive); in the assay on UACC-62, > 100 µM (inactive). For the same compound, the GI50 in the assay with UO-31 is 34.5 µM (inactive).
